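Assay format: 96-well plates, 48-hour exposure. GI50 = concentration required for 50% inhibition of growth.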 The source made the active and inactive calls. Cut-off read from the data, not from the text of the source: active = GI50 up to about 1.1 µM and inactive = higher.
Experiments:
Test in all cases: DTP human tumour cell line panel, 48 h
NCI-H226 = tested on: NCI-H226
CCRF-CEM = tested on: CCRF-CEM
A549 = tested on: A549
HOP-62 = tested on: HOP-62
HCT-116 = tested on: HCT-116
NCI-H23 = tested on: NCI-H23
OVCAR-4 = tested on: OVCAR-4
SN12C = tested on: SN12C
SF-539 = tested on: SF-539
IGROV-1 = tested on: IGROV-1
M14 = tested on: M14
SK-MEL-2 = tested on: SK-MEL-2
TK-10 = tested on: TK-10
SK-MEL-5 = tested on: SK-MEL-5
NCI-H460 = tested on: NCI-H460
SNB-78 = tested on: SNB-78
A498 = tested on: A498

Measured: GI50

Cn1ncnc1CCc1ccccc1
inactive: NCI-H226 > 100 µM | CCRF-CEM > 100 µM | A549 > 100 µM | HOP-62 > 100 µM | HCT-116 > 100 µM | NCI-H23 > 100 µM | OVCAR-4 > 100 µM | SN12C > 100 µM | SF-539 > 100 µM | IGROV-1 > 100 µM | M14 > 100 µM | SK-MEL-2 > 100 µM | TK-10 > 100 µM | SK-MEL-5 > 100 µM | NCI-H460 > 100 µM | SNB-78 > 100 µM | A498 > 100 µM
